≈ marks a conversion by molar mass, not a printed value.
How the values were obtained:
[1] = Fraction unbound in human plasma (Prot. Bind.), equilibrium dialysis; type: in vitro ADME; conditions: 5 μM, dialysis at 37 °C for 18 hours
Excerpt: (§1) 5. Pharmaceutically relevant properties modulation
(§2) Product analogues 5e, 6a-6k obtained after late-stage meta-C–H alkylation of the pharmaceutically active compound Emapunil (4e) were subjected to a range of fundamental in vitro drug discovery assays. To prevent hydrolysis of ester groups present on these analogues during biological testing (in order to compare the clearance and metabolic stability between these drug derivatives), their corresponding free acids 5e’, 6a’-6k’ were synthesised (see page S54) and subjected to similar assays.
(§3) The experimental methods used for these physicochemical & drug metabolism and pharmacokinetics (DMPK) assays are described below 11. […]
Fraction unbound in human plasma (Prot. Bind.)
Equilibrium dialysis of compounds was used to assess the fraction unbound in human plasma. Stock solutions of compounds dissolved in DMSO were pooled into cassettes with up to 10 compounds in each cassette with a concentration of 1 mM. The pooled stock solutions were diluted in plasma to a compound concentration of 5 μM. Warfarin, propranolol and metoprolol were used as reference compounds in each run. The equilibrium dialysis device (RED, Thermo Fischer Scientific Inc., Rockford, USA) was used for dialysis against phosphate buffer (pH 7.4) at 37 °C for 18 hours. Calibration curves ranging from 0.001 to 7 μM were made using aliquots of the 7 μM spiked plasma pools that were transferred to a new plate followed by serial dilutions with blank plasma. Calibration curve samples and dialysis samples were precipitated with MeCN and after centrifugation, supernatants were removed and analysed using LC-MS/MS (Waters Xevo-TQS). Fraction unbound in the incubation was calculated as the concentration in the media buffer sample divided by the concentration in the plasma sample. The fraction unbound was reported as the median value.

[2] = Metabolic stability in human liver microsomes (CLint HLM); type: in vitro ADME; conditions: 1 mg/mL microsomal protein, 1 mM NADPH, 37 °C; for microsomal CLint at 1 μM: both sexes, human, liver microsomes, pH 7.4, measured on the labelled compound itself, n = 1, read-out: CLint HLM (intrinsic clearance in human liver microsomes); for CLint HLM (intrinsic clearance in human liver microsomes): measured on the labelled compound itself, 1 μM, n = 1
Experimental: Metabolic stability in human liver microsomes (CLint HLM)
Human liver microsomes were defrosted on ice and diluted to 1 mg/mL of microsomal protein in phosphate buffer (0.1 M, pH 7.4). Compounds at 1 μM were incubated with the liver microsome suspensions and 1 mM NADPH at 37 °C in a 96-well plate. At 0.5, 5, 10, 15, 20 and 30 min, aliquots of 30 μL were transferred to a 96-well plate containing 120 μL MeCN. This plate was centrifuged for 20 min and supernatant was removed and diluted with H2O (1:1) before analysis by LC-MS/MS (Waters Xevo-TQS). Peak areas were determined from extracted ion chromatograms, and the in vitro intrinsic clearance (in vitro CLint, in μL/min/mg microsomal protein) of parent compound was calculated from the slope in the regression analysis of the natural logarithm of parent concentration vs. time curve.
Human Liver Microsomes (InVitroCYPTM 150-Donor, Mixed Gender) were harvested and supplied by BioIVT (Product No. X008070, Lot No. QQY). […]
(§4) The modulation of pharmaceutically relevant properties on meta-C–H alkylation is shown below in Supplementary Fig. 68, with a selection of physicochemical and DMPK data including solubility , LogD, human plasma protein binding (Prot. Bind.) and intrinsic clearance (CLint) in human liver microsomes (HLM) or rat hepatocytes (Rat Hep.) .

[3] = Metabolic stability in male Han Wistar rat hepatocytes (CLint Rat Hep.); type: in vitro ADME; conditions: measured on the labelled compound itself, 1 μM, 10^6 viable cells/mL, 37 °C, n = 1
Experimental: Metabolic stability in male Han Wistar rat hepatocytes (CLint Rat Hep.) Hepatocyte metabolic stability was determined in accordance with the method described by Jacobson et al14. Cryopreserved hepatocytes at a concentration of 10 6 viable cells/mL were used. After thawing, hepatocytes were incubated for 10 min to warm to 37 °C, and compounds dissolved in MeCN were […]
incubation system was mixed and 20 μL aliquots were transferred at each time point to wells in a separate plate filled with 80 μL MeCN to stop the reaction. The quenching plate was then vortexed followed by centrifugation, and supernatants were analysed by LC-MS/MS (Waters Xevo-TQS). Peak areas were determined from extracted ion chromatograms, and the in vitro intrinsic clearance (in vitro CLint, in μL/min/10^6 cells) of parent compound was calculated from the slope in the regression analysis of the natural logarithm of parent concentration vs. time curve. Rat Hepatocytes (Cryosuspension, Male Wistar Hannover ) were harvested and s upplied by BioIVT (Product No. M00065, Lot No. DVO).
as §4

[4] = Thermodynamic solubility, shake-flask approach, phosphate buffer pH 7.4; type: physicochemical; conditions: pH 7.4, phosphate buffer 0.1 M, 20 °C, n = 1
Excerpt: as §1, §2
The experimental methods used for these physicochemical & drug metabolism and pharmacokinetics (DMPK) assays are described below 11.
This method measures the thermodynamic solubility of compounds based on a shake-flask approach12.
The nature of the solid state was unknown in these experiments and may be subject to variability. The compounds were dissolved in DMSO (30 μL, 10 mM) in glass vials, and were dried using a Genevac vacuum evaporator (Genevac Ltd, Ipswich, UK). When the samples were dry, 300 μL of phosphate buffer (0.1 M, pH 7.4) was added to the glass vials. The vials were put on an Edmund Bühler shaker (Edmund Bühler GmbH, Hechingen, Germany) at 20 °C for 18 hours. Samples were filtered through a Whatman GF/B 96-well filter and 20 μL of filtrated samples were transferred to separate wells in a plate containing 180 μL MeCN/H2O (1:1). Standards were prepared by diluting the 10 mM compound solutions with MeCN/H2O (1:1) to 200 μM. Three further dilution steps of 10 times were applied to both the samples and standards and they were all analy sed by LC-MS/MS (Waters Xevo-TQS). Solubility was determined using the integrated peak areas of the samples in the linear MS response range. […]

[5] = Octanol/water partitioning (LogD), shake-flask method; type: physicochemical; conditions: n = 1
Excerpt: as §1, §2, §3
Octanol/water partitioning (LogD)
Partitioning of compounds between 1 -octanol and phosphate buffer (0.1 M, pH 7.4) at 20 °C were determined using a modified version of the shake -flask method described by Leo et al13. Compounds were dissolved in a 96 -well plate, in 400 μL octanol, and 400 μL of buffer was added to each well. The plate was vigorously stirred for 5 min and then put on an Edmund Bühler shaker (Edmund Bühler GmbH, Hechingen, Germany) at 20 °C for 18 hours. Aliquots of 5 μL octanol were transferred and diluted with 495 μL MeCN/H2O (1:1) and, to avoid contamination of the buffer, the rest of the octanol was removed before 150 μL of buffer samples were transferred. Octanol and buffer samples were diluted with MeCN/H2O (1:1) in four steps of 10 times to yield octanol samples diluted 10 2 to 106 times and buffer samples diluted 1 to 104 times. LC-MS/MS (Waters Xevo-TQS) was used for analysis, and distribution coefficient at pH 7.4 (LogD7.4) was calculated from the integrated peak areas of the samples in the linear MS response range. LogD7.4 results were reported as median values. […]

[6] = aqueous buffer, thermodynamic from solid
[7] = 1-octanol / phosphate buffer pH 7.4, 20 °C
[8] = 1-octanol/phosphate buffer, pH 7.4, 1-octanol / phosphate buffer pH 7.4, 20 °C

| Prot. Bind. (% free), human plasma protein binding ([1]; n = 1) | Prot. Bind. (% free), human plasma protein binding ([1]; n = 1, listed as 6i’) | microsomal CLint at 1 μM [2] | CLint HLM (intrinsic clearance in human liver microsomes) [2] | solubility at 18 h [4, 6] | solubility at 18 h [4] | LogD (octanol) [5, 7] | logD [5, 8] | SMILES | CLint Rat Hep. (intrinsic clearance in rat hepatocytes) [3] | CLint Rat Hep. (intrinsic clearance in rat hepatocytes) ([3]; listed as 6i’) | CLint Rat Hep. (intrinsic clearance in rat hepatocytes) ([3]; listed as 6h’) | Prot. Bind. (% free), human plasma protein binding ([1]; n = 1, listed as 6g’) | CLint Rat Hep. (intrinsic clearance in rat hepatocytes) ([3]; listed as 6g’) | logD [5, 7] | CLint Rat Hep. (intrinsic clearance in rat hepatocytes) ([3]; listed as 6k’) |
| --- | --- | --- | --- | --- | --- | --- | --- | --- | --- | --- | --- | --- | --- | --- | --- |
| 7.8 % free | 5.9 % free | > 300 µL/min/mg | < 3.0 µL/min/mg | 104 µM (≈ 55.1 µg/mL) | > 1000 µM | -0.7 | 2.9 | CCN(Cc1ccccc1)C(=O)Cn1c(=O)n(C)c2cnc(-c3cccc(C4(C(=O)OC)CCOC4)c3)nc21 (stereo not shown) [6i] | > 300 μL/min/10^6 | 12.9 μL/min/10^6 |  |  |  |  |  |
| 14.0 % free |  | > 300 µL/min/mg | 4.6 µL/min/mg | 58 µM (≈ 30.7 µg/mL) | > 1000 µM | -1.0 | 3.1 | CCOC(=O)C1(c2cccc(-c3ncc4c(n3)n(CC(=O)N(CC)Cc3ccccc3)c(=O)n4C)c2)COC1 [6h] | > 300 μL/min/10^6 |  | 19.3 μL/min/10^6 |  |  |  |  |
| < 0.3 % free |  | > 300 µL/min/mg | 24.1 µL/min/mg | 6 µM (≈ 4.31 µg/mL) | 806 µM (≈ 579 µg/mL) | > 3.2 |  | CCN(Cc1ccccc1)C(=O)Cn1c(=O)n(C)c2cnc(-c3cccc(C4(C(=O)OCc5ccccc5)CCN(C(=O)OC(C)(C)C)CC4)c3)nc21 [6k] | 157 μL/min/10^6 |  |  |  |  |  | 18.0 μL/min/10^6 |

| SMILES | Prot. Bind. (% free), human plasma protein binding ([1]; n = 1) | Prot. Bind. (% free), human plasma protein binding ([1]; n = 1, listed as 6i’) | microsomal CLint at 1 μM [2] | CLint HLM (intrinsic clearance in human liver microsomes) [2] | solubility at 18 h [4, 6] | solubility at 18 h [4] | LogD (octanol) [5, 7] | logD [5, 8] | CLint Rat Hep. (intrinsic clearance in rat hepatocytes) [3] | CLint Rat Hep. (intrinsic clearance in rat hepatocytes) ([3]; listed as 6i’) | CLint Rat Hep. (intrinsic clearance in rat hepatocytes) ([3]; listed as 6h’) | Prot. Bind. (% free), human plasma protein binding ([1]; n = 1, listed as 6g’) | CLint Rat Hep. (intrinsic clearance in rat hepatocytes) ([3]; listed as 6g’) | logD [5, 7] | CLint Rat Hep. (intrinsic clearance in rat hepatocytes) ([3]; listed as 6k’) |
| --- | --- | --- | --- | --- | --- | --- | --- | --- | --- | --- | --- | --- | --- | --- | --- |
| CCOP(=O)(OCC)C(F)(F)c1cccc(-c2ncc3c(n2)n(CC(=O)N(CC)Cc2ccccc2)c(=O)n3C)c1 [6g] | 2.0 % free |  | > 300 µL/min/mg | < 3.0 µL/min/mg | 46 µM (≈ 27 µg/mL) | > 1000 µM | -0.8 |  | > 300 μL/min/10^6 |  |  | 3.7 % free | 4.2 μL/min/10^6 | 4.4 |  |

— article PMC11026381, “Late-stage meta-C–H alkylation of pharmaceuticals to modulate biological properties and expedite molecular optimisation in a single step” (Nature Communications, 2024)
